A word on the pKi: it is the negative decadic logarithm of the Ki, by convention in mol/L.

pKi: −log10 of the molar value. Calls of active or inactive are those of the source. The calls are words filed in the database; no cut-off is given here.

A short description of test [1]: Binding affinity to recombinant Bacteroides fragilis phosphonopyruvate decarboxylase using phosphonopyruvate as substrate.
For test [2], the system named is Bacteroides fragilis. The test is described as follows: Irreversible inhibition of recombinant Bacteroides fragilis phosphonopyruvate decarboxylase at 10 uM using phosphonopyruvate as substrate after overnight dialysis.
Test [3] concerns Bacteroides fragilis. Description: Inhibition of recombinant Bacteroides fragilis phosphonopyruvate decarboxylase at 35 uM incubated for 3 mins by CD spectropolarimetric analysis.
Test [4] deals with Bacteroides fragilis. The test is described as follows: Inhibition of recombinant Bacteroides fragilis phosphonopyruvate decarboxylase at 35 uM incubated for 3 mins by UV-Vis spectrophotometric analysis.
Test [5] has as its system Saccharomyces cerevisiae. The test is described as follows: Inhibition of yeast alcohol dehydrogenase.
Test [6] deals with Bacteroides fragilis. The test is described as follows: Irreversible inhibition of recombinant Bacteroides fragilis phosphonopyruvate decarboxylase at 10 to 50 uM using phosphonopyruvate as substrate.
For test [7], the system named is Bacteroides fragilis. The test is described as follows: Inhibition of recombinant Bacteroides fragilis phosphonopyruvate decarboxylase assessed as fluoride ion release up to 75 uM incubated for 30 mins by TISAB 2 solution based ion-selective electrode assay.
For test [8], the system named is Pseudomonas putida. The test is described as follows: Inhibition of recombinant Pseudomonas putida C-terminal His-tagged phosphonatase.

`O=C(O)C(O)(O)C(F)(F)P(=O)(O)O`: the pKi in test [1] is 6.22. Further, the inhibition entry in test [2], in test [3], in test [4] and in test [7] was “Active” throughout. Also, the inhibition entry in test [5] and in test [8] was “inactive” throughout. Also, the TDI result in test [6] was “Active”.

The record behind these values is ChEMBL document CHEMBL4052755, “Phosphonodifluoropyruvate is a mechanism-based inhibitor of phosphonopyruvate decarboxylase from Bacteroides fragilis” (Bioorg Med Chem, 2017).
